From ChEMBL document CHEMBL4138081, “Recent developments of coumarin-containing derivatives and their anti-tubercular activity” (Eur J Med Chem, 2017)
Converted amounts (≈) assume the structure as drawn.

Key:
[1] = Resistant index, ratio of MIC for INH resistant Mycobacterium tuberculosis to MIC for Mycobacterium tuberculosis H37Rv; format: functional
[2] = system: Mycobacterium tuberculosis; assay: Antimycobacterial activity against INH resistant Mycobacterium tuberculosis after 72 hrs by alamar blue dye-based broth dilution assay; format: functional

Compound	Ratio [1]	MIC [2]
Cc1cc2oc(=O)c(C(c3cccs3)c3c(O)c4cc(C)c(C)cc4oc3=O)c(C)c2cc1C (centres undefined)	1.6	8.34 µM (≈ 3.94 µg/mL)
O=c1oc2ccccc2cc1C(c1cccs1)c1c(O)c2ccccc2oc1=O (centres undefined)	1.6	8.34 µM (≈ 3.36 µg/mL)
